From ChEMBL document CHEMBL1139710, “Syntheses and studies of quinolone-cephalosporins as potential anti-tuberculosis agents” (Bioorg Med Chem Lett, 2006)
Values after ≈ are worked out from the molar mass of the structure shown.

What follows are compounds tested on Mycolicibacterium aurum (assay: Antibacterial activity against Mycobacterium aurum DSM 43436). Details: not given.
Format: functional

Structure (SMILES)	MIC [µM]
O=C(Cc1ccccc1)N[C@@H]1C(=O)N2C(C(=O)O)=C(CN3CCN(c4cc5c(cc4F)c(=O)c(C(=O)O)cn5C4CC4)CC3)CS[C@H]12	0.4 (≈ 0.265 µg/mL)
O=C(Cc1ccccc1)N[C@@H]1C(=O)N2C(C(=O)OC(c3ccccc3)c3ccccc3)=C(CO)CS[C@H]12	25 (≈ 12.9 µg/mL)
COc1ccc(COC(=O)C2=C(CI)CS[C@@H]3[C@H](NC(=O)Cc4ccccc4)C(=O)N23)cc1	50 (≈ 28.9 µg/mL)
O=C(O)c1cn(C2CC2)c2cc(N3CCNCC3)c(F)cc2c1=O [CIPROFLOXACIN]	0.1 (≈ 0.0331 µg/mL)

The compounds below were run on Mycolicibacterium aurum (assay: Antibacterial activity against Mycobacterium aurum SB66). Details: not given.
Format: functional

Structure (SMILES)	MIC [µM]
O=C(Cc1ccccc1)N[C@@H]1C(=O)N2C(C(=O)O)=C(CN3CCN(c4cc5c(cc4F)c(=O)c(C(=O)O)cn5C4CC4)CC3)CS[C@H]12	0.4 (≈ 0.265 µg/mL)
O=C(Cc1ccccc1)N[C@@H]1C(=O)N2C(C(=O)OC(c3ccccc3)c3ccccc3)=C(CO)CS[C@H]12	50 (≈ 25.7 µg/mL)
COc1ccc(COC(=O)C2=C(CI)CS[C@@H]3[C@H](NC(=O)Cc4ccccc4)C(=O)N23)cc1	100 (≈ 57.8 µg/mL)
O=C(O)c1cn(C2CC2)c2cc(N3CCNCC3)c(F)cc2c1=O [CIPROFLOXACIN]	0.1 (≈ 0.0331 µg/mL)

What follows are compounds tested on Mycobacterium tuberculosis (assay: Antibacterial activity against Mycobacterium tuberculosis H37Rv by microplate alamar blue assay). Details: not given.
Format: functional

Structure (SMILES)	MIC [µM]
O=C(Cc1ccccc1)N[C@@H]1C(=O)N2C(C(=O)O)=C(CN3CCN(c4cc5c(cc4F)c(=O)c(C(=O)O)cn5C4CC4)CC3)CS[C@H]12	3.8 (≈ 2.51 µg/mL)
O=C(Cc1ccccc1)N[C@@H]1C(=O)N2C(C(=O)OC(c3ccccc3)c3ccccc3)=C(CO)CS[C@H]12	> 128
COc1ccc(COC(=O)C2=C(CI)CS[C@@H]3[C@H](NC(=O)Cc4ccccc4)C(=O)N23)cc1	> 128
O=C(O)c1cn(C2CC2)c2cc(N3CCNCC3)c(F)cc2c1=O [CIPROFLOXACIN]	1.8 (≈ 0.596 µg/mL)

Each compound was assayed on Micrococcus luteus (assay: Antibacterial activity against Micrococcus luteus ATCC 10240). Details: not given.
Format: functional

Structure (SMILES)	MIC [µM]
O=C(Cc1ccccc1)N[C@@H]1C(=O)N2C(C(=O)O)=C(CN3CCN(c4cc5c(cc4F)c(=O)c(C(=O)O)cn5C4CC4)CC3)CS[C@H]12	0.4 (≈ 0.265 µg/mL)
O=C(Cc1ccccc1)N[C@@H]1C(=O)N2C(C(=O)OC(c3ccccc3)c3ccccc3)=C(CO)CS[C@H]12	25 (≈ 12.9 µg/mL)
COc1ccc(COC(=O)C2=C(CI)CS[C@@H]3[C@H](NC(=O)Cc4ccccc4)C(=O)N23)cc1	100 (≈ 57.8 µg/mL)
O=C(O)c1cn(C2CC2)c2cc(N3CCNCC3)c(F)cc2c1=O [CIPROFLOXACIN]	25 (≈ 8.28 µg/mL)

These compounds were tested on Enterococcus faecalis (assay: Antibacterial activity against Enterococcus faecalis 1528 VRE). Details: not given.
Format: functional

Structure (SMILES)	MIC [µM]
O=C(Cc1ccccc1)N[C@@H]1C(=O)N2C(C(=O)O)=C(CN3CCN(c4cc5c(cc4F)c(=O)c(C(=O)O)cn5C4CC4)CC3)CS[C@H]12	12.5 (≈ 8.27 µg/mL)
O=C(Cc1ccccc1)N[C@@H]1C(=O)N2C(C(=O)OC(c3ccccc3)c3ccccc3)=C(CO)CS[C@H]12	200 (≈ 103 µg/mL)
COc1ccc(COC(=O)C2=C(CI)CS[C@@H]3[C@H](NC(=O)Cc4ccccc4)C(=O)N23)cc1	200 (≈ 116 µg/mL)
O=C(O)c1cn(C2CC2)c2cc(N3CCNCC3)c(F)cc2c1=O [CIPROFLOXACIN]	1.56 (≈ 0.517 µg/mL)

What follows are compounds tested on Mycolicibacterium vaccae (assay: Antibacterial activity against Mycobacterium vaccae IMET10670). Details: not given.
Format: functional

Structure (SMILES)	MIC [µM]
O=C(Cc1ccccc1)N[C@@H]1C(=O)N2C(C(=O)O)=C(CN3CCN(c4cc5c(cc4F)c(=O)c(C(=O)O)cn5C4CC4)CC3)CS[C@H]12	3.12 (≈ 2.06 µg/mL)
O=C(Cc1ccccc1)N[C@@H]1C(=O)N2C(C(=O)OC(c3ccccc3)c3ccccc3)=C(CO)CS[C@H]12	200 (≈ 103 µg/mL)
COc1ccc(COC(=O)C2=C(CI)CS[C@@H]3[C@H](NC(=O)Cc4ccccc4)C(=O)N23)cc1	100 (≈ 57.8 µg/mL)
O=C(O)c1cn(C2CC2)c2cc(N3CCNCC3)c(F)cc2c1=O [CIPROFLOXACIN]	0.8 (≈ 0.265 µg/mL)

Each compound was assayed on Staphylococcus aureus (assay: Antibacterial activity against Staphylococcus aureus SG 511). Details: not given.
Format: functional

Structure (SMILES)	MIC [µM]
O=C(Cc1ccccc1)N[C@@H]1C(=O)N2C(C(=O)O)=C(CN3CCN(c4cc5c(cc4F)c(=O)c(C(=O)O)cn5C4CC4)CC3)CS[C@H]12	1.56 (≈ 1.03 µg/mL)
O=C(Cc1ccccc1)N[C@@H]1C(=O)N2C(C(=O)OC(c3ccccc3)c3ccccc3)=C(CO)CS[C@H]12	3.12 (≈ 1.61 µg/mL)
COc1ccc(COC(=O)C2=C(CI)CS[C@@H]3[C@H](NC(=O)Cc4ccccc4)C(=O)N23)cc1	6.25 (≈ 3.62 µg/mL)
O=C(O)c1cn(C2CC2)c2cc(N3CCNCC3)c(F)cc2c1=O [CIPROFLOXACIN]	0.8 (≈ 0.265 µg/mL)

These compounds were tested on Mycolicibacterium smegmatis (assay: Antibacterial activity against Mycobacterium smegmatis SG987). Details: not given.
Format: functional

Structure (SMILES)	MIC [µM]
O=C(Cc1ccccc1)N[C@@H]1C(=O)N2C(C(=O)O)=C(CN3CCN(c4cc5c(cc4F)c(=O)c(C(=O)O)cn5C4CC4)CC3)CS[C@H]12	3.12 (≈ 2.06 µg/mL)
O=C(Cc1ccccc1)N[C@@H]1C(=O)N2C(C(=O)OC(c3ccccc3)c3ccccc3)=C(CO)CS[C@H]12	200 (≈ 103 µg/mL)
COc1ccc(COC(=O)C2=C(CI)CS[C@@H]3[C@H](NC(=O)Cc4ccccc4)C(=O)N23)cc1	> 200
O=C(O)c1cn(C2CC2)c2cc(N3CCNCC3)c(F)cc2c1=O [CIPROFLOXACIN]	0.8 (≈ 0.265 µg/mL)

The compounds below were run on Escherichia coli (assay: Antibacterial activity against Escherichia coli DC0). Details: not given.
Format: functional, organism-based

Structure (SMILES)	MIC [µM]
O=C(Cc1ccccc1)N[C@@H]1C(=O)N2C(C(=O)O)=C(CN3CCN(c4cc5c(cc4F)c(=O)c(C(=O)O)cn5C4CC4)CC3)CS[C@H]12	3.12 (≈ 2.06 µg/mL)
O=C(Cc1ccccc1)N[C@@H]1C(=O)N2C(C(=O)OC(c3ccccc3)c3ccccc3)=C(CO)CS[C@H]12	> 200
COc1ccc(COC(=O)C2=C(CI)CS[C@@H]3[C@H](NC(=O)Cc4ccccc4)C(=O)N23)cc1	200 (≈ 116 µg/mL)
O=C(O)c1cn(C2CC2)c2cc(N3CCNCC3)c(F)cc2c1=O [CIPROFLOXACIN]	0.4 (≈ 0.133 µg/mL)

Each compound was assayed on Enterobacter cloacae (assay: Antibacterial activity against Enterobacter cloacae P99). Details: not given.
Format: functional

Structure (SMILES)	MIC [µM]
O=C(Cc1ccccc1)N[C@@H]1C(=O)N2C(C(=O)O)=C(CN3CCN(c4cc5c(cc4F)c(=O)c(C(=O)O)cn5C4CC4)CC3)CS[C@H]12	0.1 (≈ 0.0662 µg/mL)
O=C(Cc1ccccc1)N[C@@H]1C(=O)N2C(C(=O)OC(c3ccccc3)c3ccccc3)=C(CO)CS[C@H]12	200 (≈ 103 µg/mL)
COc1ccc(COC(=O)C2=C(CI)CS[C@@H]3[C@H](NC(=O)Cc4ccccc4)C(=O)N23)cc1	100 (≈ 57.8 µg/mL)

These compounds were tested on Pseudomonas aeruginosa (assay: Antibacterial activity against Pseudomonas aeruginosa KW 799). Details: not given.
Format: functional

Structure (SMILES)	MIC [µM]
O=C(Cc1ccccc1)N[C@@H]1C(=O)N2C(C(=O)O)=C(CN3CCN(c4cc5c(cc4F)c(=O)c(C(=O)O)cn5C4CC4)CC3)CS[C@H]12	1.56 (≈ 1.03 µg/mL)
O=C(Cc1ccccc1)N[C@@H]1C(=O)N2C(C(=O)OC(c3ccccc3)c3ccccc3)=C(CO)CS[C@H]12	100 (≈ 51.5 µg/mL)
COc1ccc(COC(=O)C2=C(CI)CS[C@@H]3[C@H](NC(=O)Cc4ccccc4)C(=O)N23)cc1	100 (≈ 57.8 µg/mL)
O=C(O)c1cn(C2CC2)c2cc(N3CCNCC3)c(F)cc2c1=O [CIPROFLOXACIN]	0.8 (≈ 0.265 µg/mL)

The compounds below were run on Pseudomonas aeruginosa (assay: Antibacterial activity against Pseudomonas aeruginosa KW 799/ 61 permeability mutant). Details: not given.
Format: functional

Structure (SMILES)	MIC [µM]
O=C(Cc1ccccc1)N[C@@H]1C(=O)N2C(C(=O)O)=C(CN3CCN(c4cc5c(cc4F)c(=O)c(C(=O)O)cn5C4CC4)CC3)CS[C@H]12	1.56 (≈ 1.03 µg/mL)
O=C(Cc1ccccc1)N[C@@H]1C(=O)N2C(C(=O)OC(c3ccccc3)c3ccccc3)=C(CO)CS[C@H]12	100 (≈ 51.5 µg/mL)
COc1ccc(COC(=O)C2=C(CI)CS[C@@H]3[C@H](NC(=O)Cc4ccccc4)C(=O)N23)cc1	100 (≈ 57.8 µg/mL)
O=C(O)c1cn(C2CC2)c2cc(N3CCNCC3)c(F)cc2c1=O [CIPROFLOXACIN]	0.4 (≈ 0.133 µg/mL)

The compounds below were run on Vero (assay: Cytotoxicity against Vero cells). Details: Chlorocebus sabaeus.
Format: cell-based

Structure (SMILES)	IC50 [µM]
O=C(Cc1ccccc1)N[C@@H]1C(=O)N2C(C(=O)O)=C(CN3CCN(c4cc5c(cc4F)c(=O)c(C(=O)O)cn5C4CC4)CC3)CS[C@H]12	> 128

The compounds below were run on Escherichia coli (assay: Antibacterial activity against Escherichia coli DC2 permeability mutant). Details: not given.
Format: functional

Structure (SMILES)	MIC [µM]
O=C(Cc1ccccc1)N[C@@H]1C(=O)N2C(C(=O)O)=C(CN3CCN(c4cc5c(cc4F)c(=O)c(C(=O)O)cn5C4CC4)CC3)CS[C@H]12	0.8 (≈ 0.529 µg/mL)
O=C(Cc1ccccc1)N[C@@H]1C(=O)N2C(C(=O)OC(c3ccccc3)c3ccccc3)=C(CO)CS[C@H]12	200 (≈ 103 µg/mL)
COc1ccc(COC(=O)C2=C(CI)CS[C@@H]3[C@H](NC(=O)Cc4ccccc4)C(=O)N23)cc1	200 (≈ 116 µg/mL)
O=C(O)c1cn(C2CC2)c2cc(N3CCNCC3)c(F)cc2c1=O [CIPROFLOXACIN]	< 0.1

What follows are compounds tested on Staphylococcus aureus (assay: Antibacterial activity against Staphylococcus aureus 134/93 MRSA). Details: not given.
Format: functional

Structure (SMILES)	MIC [µM]
O=C(Cc1ccccc1)N[C@@H]1C(=O)N2C(C(=O)O)=C(CN3CCN(c4cc5c(cc4F)c(=O)c(C(=O)O)cn5C4CC4)CC3)CS[C@H]12	200 (≈ 132 µg/mL)
O=C(Cc1ccccc1)N[C@@H]1C(=O)N2C(C(=O)OC(c3ccccc3)c3ccccc3)=C(CO)CS[C@H]12	> 200
COc1ccc(COC(=O)C2=C(CI)CS[C@@H]3[C@H](NC(=O)Cc4ccccc4)C(=O)N23)cc1	> 200
O=C(O)c1cn(C2CC2)c2cc(N3CCNCC3)c(F)cc2c1=O [CIPROFLOXACIN]	50 (≈ 16.6 µg/mL)

What follows are compounds tested on Mycolicibacterium fortuitum (assay: Antibacterial activity against Mycobacterium fortuitum B). Details: not given.
Format: functional

Structure (SMILES)	MIC [µM]
O=C(Cc1ccccc1)N[C@@H]1C(=O)N2C(C(=O)O)=C(CN3CCN(c4cc5c(cc4F)c(=O)c(C(=O)O)cn5C4CC4)CC3)CS[C@H]12	3.12 (≈ 2.06 µg/mL)
O=C(Cc1ccccc1)N[C@@H]1C(=O)N2C(C(=O)OC(c3ccccc3)c3ccccc3)=C(CO)CS[C@H]12	200 (≈ 103 µg/mL)
COc1ccc(COC(=O)C2=C(CI)CS[C@@H]3[C@H](NC(=O)Cc4ccccc4)C(=O)N23)cc1	200 (≈ 116 µg/mL)
O=C(O)c1cn(C2CC2)c2cc(N3CCNCC3)c(F)cc2c1=O [CIPROFLOXACIN]	0.2 (≈ 0.0663 µg/mL)
